Reference: patent publication US9688699B2, “3-(pyrimidine-2-yl)imidazo[1,2-a]pyridines” (Bayer Pharma Aktiengesellschaft, priority 2014, dated 2017)
Counter-ions that a name gives are not always drawn.

How the values were obtained:
[1] = molecular target: T1, recombinant guanylate cyclase reporter cell line (Rattus norvegicus, UniProt P19686+P20595); test: Effect on a recombinant guanylate cyclase reporter cell line (B-2); type: cell-based; conditions: MEC = minimum effective concentration, in some cases mean values for individual determinations
T1 construct: expressed in transfected cells
T1 sequence (P19686 1-690): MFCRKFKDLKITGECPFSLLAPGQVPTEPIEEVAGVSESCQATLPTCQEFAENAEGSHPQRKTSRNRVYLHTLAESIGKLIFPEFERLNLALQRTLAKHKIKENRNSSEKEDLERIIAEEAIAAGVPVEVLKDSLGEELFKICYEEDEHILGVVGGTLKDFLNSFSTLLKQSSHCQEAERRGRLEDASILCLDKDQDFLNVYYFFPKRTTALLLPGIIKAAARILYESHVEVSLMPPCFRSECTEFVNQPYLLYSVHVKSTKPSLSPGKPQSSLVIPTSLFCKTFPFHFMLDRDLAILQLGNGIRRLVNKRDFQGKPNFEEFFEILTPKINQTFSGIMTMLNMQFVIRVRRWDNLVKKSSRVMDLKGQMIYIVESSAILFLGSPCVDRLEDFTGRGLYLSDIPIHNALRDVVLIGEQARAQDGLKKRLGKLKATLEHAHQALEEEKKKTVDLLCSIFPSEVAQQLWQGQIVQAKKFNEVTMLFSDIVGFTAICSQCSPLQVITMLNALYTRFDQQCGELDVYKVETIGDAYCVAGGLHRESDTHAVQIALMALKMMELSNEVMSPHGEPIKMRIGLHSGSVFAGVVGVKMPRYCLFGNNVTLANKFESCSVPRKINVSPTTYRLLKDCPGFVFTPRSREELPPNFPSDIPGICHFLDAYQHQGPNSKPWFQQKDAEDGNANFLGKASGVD
T1 sequence (P20595 1-619): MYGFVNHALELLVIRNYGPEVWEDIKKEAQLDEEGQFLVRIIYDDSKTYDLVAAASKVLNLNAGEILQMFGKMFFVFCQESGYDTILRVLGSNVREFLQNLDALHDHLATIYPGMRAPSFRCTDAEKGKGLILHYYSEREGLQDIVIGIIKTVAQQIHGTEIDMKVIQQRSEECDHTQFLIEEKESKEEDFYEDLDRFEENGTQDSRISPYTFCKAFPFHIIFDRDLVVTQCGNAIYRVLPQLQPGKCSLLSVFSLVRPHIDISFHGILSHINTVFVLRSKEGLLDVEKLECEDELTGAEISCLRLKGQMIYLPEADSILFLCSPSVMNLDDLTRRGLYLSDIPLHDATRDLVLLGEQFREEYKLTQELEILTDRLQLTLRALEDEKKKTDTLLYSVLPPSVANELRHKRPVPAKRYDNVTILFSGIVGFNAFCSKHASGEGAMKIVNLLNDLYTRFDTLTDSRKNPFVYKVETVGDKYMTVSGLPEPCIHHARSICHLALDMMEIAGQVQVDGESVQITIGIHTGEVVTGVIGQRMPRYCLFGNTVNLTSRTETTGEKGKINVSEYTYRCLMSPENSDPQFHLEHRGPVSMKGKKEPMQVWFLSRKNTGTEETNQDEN
Summary of the method: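 Cellular guanylate cyclase activity measured in a recombinant reporter cell line expressing rat soluble guanylate cyclase subunits. Values are minimum effective concentrations (MEC), some as means of individual determinations.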

[2] = molecular target: T2, human phosphodiesterase 5 (PDE 5) (Homo sapiens, UniProt O76074); test: Inhibition of human phosphodiesterase 5 (PDE 5) (B-3); type: biochemical; conditions: PDE 5 preparation from human platelets; [8-3H] cGMP substrate, SPA; in some cases means of individual determinations
T2 construct: PDE 5 preparations are obtained from human platelets by disruption; from tissue; host or cells: human platelets (Mono Q ion exchange fractions with PDE 5 activity)
Summary of the method: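 Enzyme partially purified from human platelets by Mono Q ion exchange; [8-3H]cGMP substrate (0.025 μCi), Tris-HCl pH 7.5 with MgCl2/EDTA, <70% conversion, 60 min at room temperature. Compounds tested at 4 to 0.0018 μM final; yttrium SPA bead read-out, IC50 from concentration–% inhibition plot.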

SMILES	MEC [1] [µM]	IC50 [2] [µM]
Cc1nc2c(OCc3c(F)cccc3F)cccn2c1-c1nc2c(c(C(N)=O)n1)C(C)(C)C(=O)N2 [Example 50, 2-{8-[(2,6-Difluorobenzyl)oxy]-2-methylimidazo[1,2-a]pyridin-3-yl}-5,5-dimethyl-6-oxo-6,7-dihydro-5H-pyrrolo[2,3-d]pyrimidine-4-carboxamide hydrochloride]	0.3	0.029
Cc1nc2c(OCc3c(F)cccc3F)cccn2c1-c1nc(NCC2(O)CC2)c2c(n1)NC(=O)C2(C)C [Example 17, 2-{8-[(2,6-difluorobenzyl)oxy]-2-methylimidazo[1,2-a]pyridin-3-yl}-4-{[(1-hydroxycyclopropyl)methyl]amino}-5,5-dimethyl-5,7-dihydro-6H-pyrrolo[2,3-d]pyrimidin-6-one]	0.3	0.0046
Cc1nc2c(OCc3c(F)cccc3F)cccn2c1-c1nc2c(c(NC3CC(O)C3)n1)C(C)(C)C(=O)N2 (mixture of isomers) [Example 30, 2-{8-[(2,6-difluorobenzyl)oxy]-2-methylimidazo[1,2-a]pyridin-3-yl}-4-[(3-hydroxycyclobutyl)amino]-5,5-dimethyl-5,7-dihydro-6H-pyrrolo[2,3-d]pyrimidin-6-one [cis/trans mixture]]	1	0.0036
Cc1nc2c(OCc3c(F)cccc3F)cccn2c1-c1nc2c(c(N[C@H]3CC[C@H](O)CC3)n1)C(C)(C)C(=O)N2 [Example 15, 2-{8-[(2,6-Difluorobenzyl)oxy]-2-methylimidazo[1,2-a]pyridin-3-yl}-4-[(trans-4-hydroxycyclohexyl)amino]-5,5-dimethyl-5,7-dihydro-6H-pyrrolo[2,3-d]pyrimidin-6-one]	3	0.0025
Cc1cc(OCc2c(F)cccc2F)c2nc(C)c(-c3nnc4c(n3)NC(=O)C4(C)C)n2c1 [Example 69, 3-{8-[(2,6-Difluorobenzyl)oxy]-2,6-dimethylimidazo[1,2-a]pyridin-3-yl}-7,7-dimethyl-5,7-dihydro-6H-pyrrolo[2,3-e][1,2,4]triazin-6-one]	1	0.79
Cc1nc2c(OCc3c(F)cccc3F)cccn2c1-c1nc(NCCC(F)(F)F)c2c(n1)NC(=O)C2(C)C [Example 19, 2-{8-[(2,6-difluorobenzyl)oxy]-2-methylimidazo[1,2-a]pyridin-3-yl}-5,5-dimethyl-4-[(3,3,3-trifluoropropyl)amino]-5,7-dihydro-6H-pyrrolo[2,3-d]pyrimidin-6-one]	1	0.0071
Cc1nc2c(OCc3c(F)ccc(F)c3F)cccn2c1-c1nc2c(c(N3CCC(CC(=O)O)CC3)n1)C(C)(C)C(=O)N2 [Example 38, [1-(5,5-dimethyl-2-{2-methyl-8-[(2,3,6-trifluorobenzyl)oxy]imidazo[1,2-a]pyridin-3-yl}-6-oxo-6,7-dihydro-5H-pyrrolo[2,3-d]pyrimidin-4-yl)piperidin-4-yl]acetic acid]	3	0.036
Cc1nc2c(OCc3c(F)ccc(F)c3F)cccn2c1-c1nc2c(c(C(=O)N3CCC(CO)C3)n1)C(C)(C)C(=O)N2 (racemic) [Example 63, rac-4-{[3-(hydroxymethyl)pyrrolidin-1-yl]carbonyl}-5,5-dimethyl-2-{2-methyl-8-[(2,3,6-trifluorobenzyl)oxy]imidazo[1,2-a]pyridin-3-yl}-5,7-dihydro-6H-pyrrolo[2,3-d]pyrimidin-6-one]	3	0.22
Cc1nc2c(OCc3c(F)cccc3F)cccn2c1-c1nc(NCCN2CCC(F)(F)C2)c2c(n1)NC(=O)C2(C)C [Example 26, 2-{8-[(2,6-difluorobenzyl)oxy]-2-methylimidazo[1,2-a]pyridin-3-yl}-4-{[2-(3,3-difluoropyrrolidin-1-yl)ethyl]amino)-5,5-dimethyl-5,7-dihydro-6H-pyrrolo[2,3-d]pyrimidin-6-one]	3	0.026
Cc1nc2c(OCc3c(F)cccc3F)cccn2c1-c1nnc2c(n1)NC(=O)C2(C)C [Example 68, 3-{8-[(2,6-Difluorobenzyl)oxy]-2-methylimidazo[1,2-a]pyridin-3-yl}-7,7-dimethyl-5,7-dihydro-6H-pyrrolo[2,3-e][1,2,4]triazin-6-one]	1	0.26
Cc1nc2c(OCc3c(F)cccc3F)cccn2c1-c1nc(NC[C@H](O)CO)c2c(n1)NC(=O)C2(C)C [Example 22, 2-{8-[(2,6-difluorobenzyl)oxy]-2-methylimidazo[1,2-a]pyridin-3-yl}-4-{[(2S)-2,3-dihydroxypropyl]amino}-5,5-dimethyl-5,7-dihydro-6H-pyrrolo[2,3-d]pyrimidin-6-one]	3	0.0039
Cc1nc2c(OCc3c(F)cccc3F)cccn2c1-c1nc(Cl)c2c(n1)NC(=O)C2(C)C [Example 4, 4-Chloro-2-{8-[(2,6-difluorobenzyl)oxy]-2-methylimidazo[1,2-a]pyridin-3-yl}-5,5-dimethyl-5,7-dihydro-6H-pyrrolo[2,3-d]pyrimidin-6-one]	3	0.11
Cc1nc2c(OCc3c(F)cccc3F)cccn2c1-c1nc(CN)c2c(n1)NC(=O)C2(C)C [Example 49, 4-(Aminomethyl)-2-{8-[(2,6-difluorobenzyl)oxy]-2-methylimidazo[1,2-a]pyridin-3-yl}-5,5-dimethyl-5,7-dihydro-6H-pyrrolo[2,3-d]pyrimidin-6-one]	1	0.048
Cc1nc2c(OCc3c(F)cccc3F)cc(Cl)cn2c1-c1nc(N)c2c(n1)NC(=O)C2(C)C [Example 67, 4-Amino-2-{6-chloro-8-[(2,6-difluorobenzyl)oxy]-2-methylimidazo[1,2-a]pyridin-3-yl}-5,5-dimethyl-5,7-dihydro-6H-pyrrolo[2,3-d]pyrimidin-6-one]	0.03	0.047
Cc1nc2c(OCc3c(F)cccc3F)cccn2c1-c1nc(O)c2c(n1)NC(=O)C2(C)C [Example 5, 2-{8-[(2,6-Difluorobenzyl)oxy]-2-methylimidazo[1,2-a]pyridin-3-yl}-4-hydroxy-5,5-dimethyl-5,7-dihydro-6H-pyrrolo[2,3-d]pyrimidin-6-one trifluoroacetate]	3	0.69
Cc1nc2c(OCc3c(F)cccc3F)cccn2c1-c1nc2c(c(NC3CCC(C)(O)CC3)n1)C(C)(C)C(=O)N2 (single isomer, unassigned; diastereomer 2) [Example 29, 2-{8-[(2,6-difluorobenzyl)oxy]-2-methylimidazo[1,2-a]pyridin-3-yl}-4-[(4-hydroxy-4-methylcyclohexyl)amino]-5,5-dimethyl-5,7-dihydro-6H-pyrrolo[2,3-d]pyrimidin-6-one formate (Diastereomer 2)]	0.3	0.0009
Cc1nc2c(OCc3c(F)cccc3F)cccn2c1-c1nc(NCC(N)c2ccc(F)c(F)c2)c2c(n1)NC(=O)C2(C)C (single isomer, unassigned; ent-4) [Example 14, ent-4-{[2-Amino-2-(3,4-difluorophenyl)ethyl]amino}-2-{8-[(2,6-difluorobenzyl)oxy]-2-methylimidazo[1,2-a]pyridin-3-yl}-5,5-dimethyl-5,7-dihydro-6H-pyrrolo[2,3-d]pyrimidin-6-one]	3	0.091
